We go through five compounds from ChEMBL document CHEMBL1138366, “Conformational comparisons of a series of tachykinin peptide analogs” (J Med Chem, 2007).

Molecules are shown by their SMILES. Residues, ends and D or L forms follow the SMILES beside them.

The target of this experiment is Substance-P receptor (Rattus norvegicus, UniProt P14600). Description: Displacement of [125I]Lys3-substance P from rat NK1 receptor expressed in CHO cells. The format is cell-based.
Chain of Substance-P receptor (P14600 whole entry): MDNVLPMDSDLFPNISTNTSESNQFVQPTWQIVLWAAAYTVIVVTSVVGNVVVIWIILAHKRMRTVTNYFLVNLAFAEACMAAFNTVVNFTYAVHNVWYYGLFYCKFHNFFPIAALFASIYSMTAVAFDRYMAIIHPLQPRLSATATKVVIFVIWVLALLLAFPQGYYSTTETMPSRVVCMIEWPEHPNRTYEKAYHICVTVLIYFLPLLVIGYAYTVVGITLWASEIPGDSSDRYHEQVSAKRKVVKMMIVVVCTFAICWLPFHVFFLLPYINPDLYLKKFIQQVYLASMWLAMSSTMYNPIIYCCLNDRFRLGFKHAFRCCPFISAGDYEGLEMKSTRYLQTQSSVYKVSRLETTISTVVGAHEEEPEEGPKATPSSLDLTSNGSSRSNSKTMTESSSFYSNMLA

As usually defined, the IC50 is the concentration needed to halve the response being measured. In the case of `CC[C@H](C)[C@H](NC(=O)[C@H](Cc1ccccc1)NC(=O)[C@H](CO)NC(=O)[C@H](C)NC(=O)[C@@H]1CCCN1C(=O)[C@H](CC(N)=O)NC(=O)[C@@H](N)Cc1cnc[nH]1)C(=O)NCC(=O)N[C@@H](CC(C)C)C(=O)N[C@@H](CCSC)C(N)=O` (H-HNPASFIGLM-NH2), the IC50 (read-out: Log IC50 (converted)) was 32.4 nM.

On to `CSCC[C@H](NC(=O)[C@H](CC(C)C)NC(=O)CNC(=O)[C@H](Cc1ccccc1)NC(=O)[C@H](Cc1ccccc1)NC(=O)[C@H](CCC(N)=O)NC(=O)[C@H](C)NC(=O)[C@@H]1CCCN1C(=O)[C@H](CCCCN)NC(=O)[C@@H]1CCCN1C(=O)[C@@H](N)CCCNC(=N)N)C(N)=O`, for which the IC50 (read-out: IC50) was 0.7 nM. Consider `CSCC[C@H](NC(=O)[C@H](CC(C)C)NC(=O)CNC(=O)[C@H](Cc1ccccc1)NC(=O)[C@H](Cc1ccccc1)NC(=O)[C@H](CCC(N)=O)NC(=O)[C@H](CCC(N)=O)NC(=O)[C@@H]1CCCN1C(=O)[C@H](CCCCN)NC(=O)[C@@H]1CCCN1)C(N)=O` (H-PKPQQFFGLM-NH2), for which the concentration for half-maximal inhibition (IC50) (read-out: IC50) stood at 4.6 nM. As to `CSCC[C@H](NC(=O)[C@H](CC(C)C)NC(=O)CNC(=O)[C@H](Cc1ccccc1)NC(=O)[C@H](Cc1ccccc1)NC(=O)[C@H](CO)NC(=O)[C@H](CCC(N)=O)NC(=O)[C@@H]1CCCN1C(=O)[C@H](CCCCN)NC(=O)[C@@H]1CCCN1C(=O)[C@@H](N)CCCN=C(N)N)C(N)=O`, the IC50 (read-out: IC50) was found to be 4.1 nM. On to `CSCC[C@H](NC(=O)[C@H](CC(C)C)NC(=O)CNC(=O)[C@H](Cc1ccccc1)NC(=O)[C@H](Cc1ccccc1)NC(=O)[C@H](CO)NC(=O)[C@H](C)NC(=O)[C@@H]1CCCN1C(=O)[C@H](CCCCN)NC(=O)[C@@H]1CCCN1C(=O)[C@@H](N)CCCN=C(N)N)C(N)=O` (H-RPKPASFFGLM-NH2), for which, where the note is “read-out: IC50”, the IC50 came to 21 nM.
